Source: patent US20220104493A1, “HERBICIDAL COMPOUNDS” (SYNGENTA CROP PROTECTION AG, priority 2019, published 2022)
Read-outs that look alike come from different tables or passages of the source.

Assays:
Assay in all cases: Post-emergence efficacy, Method A
Type in all cases: in vivo
[1] = system: Ipomoea hederacea (IPOHE); details: read-out: Control of weed species after post-emergence application, IPOHE
[2] = system: Chenopodium album (CHEAL); details: read-out: Control of weed species after post-emergence application, CHEAL
[3] = system: Amaranthus palmeri (AMAPA); details: read-out: Control of weed species after post-emergence application, AMAPA
Lolium perenne (LOLPE) = details: read-out: Control of weed species after post-emergence application, LOLPE
[4] = system: Digitaria sanguinalis (DIGSA); details: read-out: Control of weed species after post-emergence application, DIGSA
Eleusine indica (ELEIN) = details: read-out: Control of weed species after post-emergence application, ELEIN
[5] = system: Echinochloa crus-galli (ECHCG); details: read-out: Control of weed species after post-emergence application, ECHCG
Setaria faberi (SETFA) = details: read-out: Control of weed species after post-emergence application, SETFA
[6] = 500 g/Ha, 100=total damage to plant, 0=no damage, evaluated after 7 and 14 days

SMILES	pest or weed control at 500 g/ha [1, 6]	pest or weed control at 500 g/ha [2, 6]	pest or weed control at 500 g/ha [3, 6]	pest or weed control at 500 g/ha (Lolium perenne (LOLPE); [6])	pest or weed control at 500 g/ha [4, 6]	pest or weed control at 500 g/ha (Eleusine indica (ELEIN); [6])	pest or weed control at 500 g/ha [5, 6]	pest or weed control at 500 g/ha (Setaria faberi (SETFA); [6])	pest or weed control at 500 g/ha [1]	pest or weed control at 500 g/ha [2]	pest or weed control at 500 g/ha [3]	pest or weed control at 500 g/ha (Lolium perenne (LOLPE))	pest or weed control at 500 g/ha [4]	pest or weed control at 500 g/ha (Eleusine indica (ELEIN))	pest or weed control at 500 g/ha [5]	pest or weed control at 500 g/ha (Setaria faberi (SETFA))
O=C(O)C[n+]1ccc(-c2nc(C(F)(F)F)ns2)cc1 [Compound A1, 2-[4-[3-(trifluoromethyl)-1,2,4-thiadiazol-5-yl]pyridin-1-ium-1-yl]acetic acid 2,2,2-trifluoroacetate]	40%	90%	100%	70%	70%	90%	60%	90%	–	–	–	–	–	–	–	–
Cc1nsc(-c2cc[n+](CS(=O)(=O)[O-])cc2)n1 [Compound A2, [4-(3-methyl-1,2,4-thiadiazol-5-yl)pyridin-1-ium-1-yl]methanesulfonate]	70%	90%	100%	60%	90%	80%	60%	70%	–	–	–	–	–	–	–	–
CP(=O)([O-])C[n+]1ccc(-c2ncns2)cc1 [Compound A10, methyl-[[4-(1,2,4-thiadiazol-5-yl)pyridin-1-ium-1-yl]methyl]phosphinate]	–	–	–	–	–	–	–	–	50%	90%	90%	40%	90%	90%	90%	100%
CC([n+]1ccc(-c2ncns2)cc1)S(=O)(=O)[O-] (stereo not drawn) [Compound A11]	80%	90%	100%	60%	80%	90%	100%	60%	–	–	–	–	–	–	–	–
O=S(=O)([O-])CCC[n+]1ccc(-c2noc(C(F)(F)F)n2)cc1 [Compound A15, 3-[4-[5-(trifluoromethyl)-1,2,4-oxadiazol-3-yl]pyridin-1-ium-1-yl]propane-1-sulfonate]	20%	0%	0%	0%	30%	10%	30%	30%	–	–	–	–	–	–	–	–
O=S(=O)([O-])CC[n+]1ccc(-c2nc(C(F)(F)F)cs2)cc1 [Compound A21]	10%	0%	70%	20%	70%	80%	90%	70%	–	–	–	–	–	–	–	–
O=S(=O)([O-])C[n+]1ccc(-c2ncco2)cc1 [Compound A23]	10%	20%	0%	0%	20%	0%	0%	0%	–	–	–	–	–	–	–	–
CS(=O)(=O)[N-]C(=O)C[n+]1ccc(-c2ncns2)cc1 [Compound A29]	90%	30%	90%	40%	90%	50%	90%	50%	–	–	–	–	–	–	–	–
COP(=O)([O-])C[n+]1ccc(-c2ncns2)cc1 [Compound A30, methoxy-[[4-(1,2,4-thiadiazol-5-yl)pyridin-1-ium-1-yl]methyl]phosphinate]	–	–	–	–	–	–	–	–	50%	70%	90%	30%	90%	90%	90%	90%
CCOP(=O)([O-])C[n+]1ccc(-c2ncns2)cc1 [Compound A31]	–	–	–	–	–	–	–	–	30%	70%	70%	20%	80%	80%	70%	40%
O=P([O-])(O)C[n+]1ccc(-c2ncns2)cc1 [Compound A32, hydroxy-[[4-(1,2,4-thiadiazol-5-yl)pyridin-1-ium-1-yl]methyl]phosphinate]	0%	20%	60%	10%	50%	40%	70%	20%	–	–	–	–	–	–	–	–
O=S(=O)([O-])CC[n+]1ccc(-c2nc(C(F)(F)F)ns2)cc1 [Compound A38]	60%	60%	90%	70%	50%	80%	60%	40%	–	–	–	–	–	–	–	–
O=S(=O)([O-])CC[n+]1ccc(-c2ncco2)cc1 [Compound A39]	20%	30%	40%	0%	0%	0%	0%	0%	–	–	–	–	–	–	–	–
O=C(O)C[n+]1ccc(-c2ccno2)cc1 [Compound A40]	20%	0%	10%	0%	0%	0%	0%	0%	–	–	–	–	–	–	–	–
O=S(=O)([O-])CC[n+]1ccc(-c2ccno2)cc1 [Compound A41]	0%	0%	10%	0%	10%	0%	10%	10%	–	–	–	–	–	–	–	–
O=S(=O)([O-])C[n+]1ccc(-c2ccsn2)cc1 [Compound A42]	10%	20%	90%	0%	10%	0%	10%	10%	–	–	–	–	–	–	–	–
O=S(=O)([O-])C[n+]1ccc(-c2nc(C(F)(F)F)co2)cc1 [Compound A43]	30%	40%	40%	10%	30%	60%	60%	20%	–	–	–	–	–	–	–	–
O=C(O)C[n+]1ccc(-c2nc(C(F)(F)F)co2)cc1 [Compound A44]	0%	10%	30%	10%	20%	10%	10%	0%	–	–	–	–	–	–	–	–
O=C(O)CC[n+]1ccc(-c2nc(C(F)(F)F)co2)cc1 [Compound A45]	0%	0%	0%	0%	20%	50%	10%	0%	–	–	–	–	–	–	–	–
CCOC(=O)C[n+]1ccc(-c2nncs2)cc1 [Compound A49]	10%	50%	10%	20%	50%	20%	10%	20%	–	–	–	–	–	–	–	–
Cc1noc(-c2cc[n+](CCC(=O)O)cc2)n1 [Compound A50]	30%	70%	40%	50%	90%	40%	20%	80%	–	–	–	–	–	–	–	–
